Source: US20140057915A1, “KINASE INHIBITORS” (TOPIVERT PHARMA LIMITED, priority 2012, published 2014)

What was measured:
[1] = tested on: ICAM-1 expression, BEAS2B cells; experiment: Poly I:C-induced ICAM-1 expression in BEAS2B cells; type: cell-based; conditions: Homo sapiens, BEAS-2B; read-out: Poly IC induced ICAM1 in BEAS2B, IC50
In short: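 BEAS2B human bronchial epithelial cells pre-incubated 2 h with compound, then transfected with poly I:C (1 μg/mL) plus Oligofectamine. After 18 h, cell-surface ICAM-1 read by cell-based ELISA (A450–655), normalised to Crystal Violet cell number (A595); inhibition calculated against vehicle control at each concentration.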

Syk = Syk (Homo sapiens, UniProt P43405); experiment: Syk enzyme inhibition (FRET); type: biochemical; conditions: Table 4a1
In short: (§1)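 Enzyme was preincubated with test compound (added as 4, 0.4, 0.04 or 0.004 μg/mL solutions) for 2 hr at RT. FRET peptide (8 μM solution) and ATP solution (800 μM for c-Src, 60 μM for Syk) were then added for 1 hr, followed by 1 hr protease development.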

[2] = tested on: TNFα release, d-U937 cells; experiment: LPS-induced TNFα release in d-U937 cells; type: cell-based; conditions: Homo sapiens, dU937; relative to 10 μg/mL BIRB796; Table 4c1; read-out: LPS Induced Release of Cytokine in d-U937 Cells, TNFα REC50
In short: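 U937 cells differentiated with PMA (100 ng/mL, 48–72 hr), pre-treated with compound for 2 hr, then stimulated with E. coli LPS (0.1 μg/mL) for 4 hr. Supernatant cytokine measured by sandwich ELISA; inhibition versus vehicle control, REC50 from concentration-response curve.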

[3] = tested on: IL-8 release, d-U937 cells; experiment: LPS-induced IL-8 release in d-U937 cells; type: cell-based; conditions: Homo sapiens, dU937; Table 4c1; read-out: LPS Induced Release of Cytokine in d-U937 Cells, IL-8 IC50
In short: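 IL-8 release after a 4 hr challenge with LPS (0.1 μg/mL, E. coli 0111:B4) following a 2 hr compound pretreatment. Cells were human U937 monocytes differentiated to macrophage-type with PMA 100 ng/mL for 48–72 hr. Relative 50% effective concentration derived from concentration–response data.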

GSK3α [4] = target: T1, GSK3α (Homo sapiens, UniProt P49840); experiment: GSK 3α enzyme inhibition (FRET), Method 1; type: biochemical; conditions: Table 4a1
T1 sequence (P49840 whole entry): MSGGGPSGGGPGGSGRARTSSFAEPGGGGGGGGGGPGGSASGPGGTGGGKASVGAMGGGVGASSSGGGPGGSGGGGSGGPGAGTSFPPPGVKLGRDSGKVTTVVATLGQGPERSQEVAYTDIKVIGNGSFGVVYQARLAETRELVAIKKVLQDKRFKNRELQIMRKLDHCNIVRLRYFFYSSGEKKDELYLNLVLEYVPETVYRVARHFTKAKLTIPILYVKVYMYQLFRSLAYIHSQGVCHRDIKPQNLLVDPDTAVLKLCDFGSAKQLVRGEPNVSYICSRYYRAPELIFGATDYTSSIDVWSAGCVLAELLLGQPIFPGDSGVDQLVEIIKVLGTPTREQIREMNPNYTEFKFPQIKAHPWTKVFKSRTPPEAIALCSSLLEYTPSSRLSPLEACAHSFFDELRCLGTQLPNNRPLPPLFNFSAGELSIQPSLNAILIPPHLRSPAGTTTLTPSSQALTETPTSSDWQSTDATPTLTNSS
In short: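 Steps: preincubate GSK3α with compound 2 hr at room temperature; start reaction with peptide and ATP for 1 hr; develop with site-specific protease for 1 hr; measure fluorescence and take the coumarin/fluorescein ratio as the phosphorylation level.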

d-U937 cells = experiment: Cell viability: MTT assay; type: cell-based, human; conditions: 1 μg/mL
In short: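 Differentiated U937 cells exposed to compound at 1 or 10 μg/mL, either 4 h in 5% FCS or 24 h in 10% FCS RPMI1640. MTT then added for 1 h, formazan dissolved in DMSO and read at 550 nm. Viability loss given as % versus 0.5% DMSO vehicle; apparent gains appear negative.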

cSrc = cSrc (Homo sapiens, UniProt P12931); experiment: c-Src enzyme inhibition (FRET); type: biochemical; conditions: Table 4a1
cSrc, sequence (P12931 whole entry): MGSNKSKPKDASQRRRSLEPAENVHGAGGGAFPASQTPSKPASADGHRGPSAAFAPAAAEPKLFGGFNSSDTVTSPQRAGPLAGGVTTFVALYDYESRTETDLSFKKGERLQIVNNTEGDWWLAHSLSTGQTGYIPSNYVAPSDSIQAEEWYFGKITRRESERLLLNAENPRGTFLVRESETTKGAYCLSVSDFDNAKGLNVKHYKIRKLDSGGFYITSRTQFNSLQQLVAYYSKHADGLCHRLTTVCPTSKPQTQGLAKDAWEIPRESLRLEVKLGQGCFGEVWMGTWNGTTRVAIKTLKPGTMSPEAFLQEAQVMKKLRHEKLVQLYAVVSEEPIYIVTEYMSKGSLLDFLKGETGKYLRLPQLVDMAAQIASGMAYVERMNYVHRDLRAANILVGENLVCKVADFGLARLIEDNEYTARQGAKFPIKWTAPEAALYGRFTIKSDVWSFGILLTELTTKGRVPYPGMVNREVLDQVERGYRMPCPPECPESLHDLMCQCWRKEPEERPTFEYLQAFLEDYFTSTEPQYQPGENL
In short: as §1

IL-8 release, PBMCs = experiment: LPS-induced IL-8 release in PBMC cells; type: cell-based; conditions: Homo sapiens, LPS stimulated, read-out: IC50 Values for Inhibition of Cytokine Release, PBMCs, IL-8
Procedure: (b) LPS-Induced TNFα/IL-8 Release in PBMC Cells
Peripheral blood mononuclear cells (PBMCs) from healthy subjects are separated from whole blood using a density gradient (Lymphoprep, Axis-Shield Healthcare). The PBMCs are seeded in 96 well plates and treated with compounds at the desired concentration for 2 hours before addition of 1 ng/ml LPS (Escherichia Coli 0111:B4 from Sigma Aldrich) for 24 hours under normal tissue culture conditions (37° C., 5% CO2). The supernatant is harvested for determination of […] concentrations by sandwich ELISA (Duo-set, R&D systems) and read on the fluorescence microplate reader (Varioskan® Flash, ThermoFisher Scientific).

GSK3α [5] = target: T1, GSK3α; experiment: GSK 3α enzyme inhibition (FRET), Method 2; type: biochemical; conditions: Table 4a2, different laboratory

SMILES | IC50 [1] [nM] | IC50 (Syk) [nM] | EC50 [2] [nM] | IC50 [3] [nM] | IC50 (GSK3α [4]) [nM] | Cell viability at time point in d-U937 cells, 4 h (d-U937 cells) | Cell viability at time point in d-U937 cells, 24 h (d-U937 cells) | IC50 (cSrc) [nM] | IC50 (IL-8 release, PBMCs) [nM] | IC50 (GSK3α [5]) [nM]
COCCNC(=O)c1cc(Nc2nccc(Oc3ccc(NC(=O)Nc4cc(C(C)C)nn4-c4ccc(C)cc4)c4ccccc34)n2)cc(OC)c1 [Example 66, 3-((4-((4-(3-(3-isopropyl-1-(p-tolyl)-1H-pyrazol-5-yl)ureido)naphthalen-1-yl)oxy)pyrimidin-2-yl)amino)-5-methoxy-N-(2-methoxyethyl)benzamide] | 2.2 | 234 | 1.6 | 3.4 | > 14300 | −ve (−ve and +ve indicate that the value is below and above respectively, the no significant effect threshold, defined as 30% inhibition at 1 μg/mL at the time point indicated) | −ve (−ve and +ve indicate that the value is below and above respectively, the no significant effect threshold, defined as 30% inhibition at 1 μg/mL at the time point indicated) | 6 |  | 
COCCNC(=O)c1cc(Nc2nccc(Oc3ccc(NC(=O)Nc4cc(C(C)(C)C)nn4-c4ccc(C)cc4)c4ccccc34)n2)cc(OC)c1 [Example 67, 3-((4-((4-(3-(3-(tert-butyl)-1-(p-tolyl)-1H-pyrazol-5-yl)ureido)naphthalen-1-yl)oxy)pyrimidin-2-yl)amino)-5-methoxy-N-(2-methoxyethyl)benzamide] | 140 | 40 | 0.1 | 1 | 452 | −ve (−ve and +ve indicate that the value is below and above respectively, the no significant effect threshold, defined as 30% inhibition at 1 μg/mL at the time point indicated) | −ve (−ve and +ve indicate that the value is below and above respectively, the no significant effect threshold, defined as 30% inhibition at 1 μg/mL at the time point indicated) | 4 |  | 
COc1cc(Nc2nccc(Oc3ccc(NC(=O)Nc4cc(C(C)C)nn4-c4ccc(C)cc4)c4ccccc34)n2)cc(C(=O)N(C)CCN2CCOCC2)c1 [Example 68, 3-((4-((4-(3-(3-isopropyl-1-(p-tolyl)-1H-pyrazol-5-yl)ureido)naphthalen-1-yl)oxy)pyrimidin-2-yl)amino)-5-methoxy-N-methyl-N-(2-morpholinoethyl)benzamide] | 3.9 | 2 | 0.2 | 0.5 | 111 | −ve (−ve and +ve indicate that the value is below and above respectively, the no significant effect threshold, defined as 30% inhibition at 1 μg/mL at the time point indicated) | −ve (−ve and +ve indicate that the value is below and above respectively, the no significant effect threshold, defined as 30% inhibition at 1 μg/mL at the time point indicated) | < 1 |  | 
COc1cc(Nc2nccc(Oc3ccc(NC(=O)Nc4cc(C(C)C)nn4-c4ccc(C)cc4)c4ccccc34)n2)cc(C(=O)N2CCN(C)CC2)c1 [Example 69, 1-(3-isopropyl-1-(p-tolyl)-1H-pyrazol-5-yl)-3-(4-((2-((3-methoxy-5-(4-methylpiperazine-1-carbonyl)phenyl)amino)pyrimidin-4-yl)oxy)naphthalen-1-yl)urea] | 7.5 | 8 | 0.2 | 0.3 | 282 | −ve (−ve and +ve indicate that the value is below and above respectively, the no significant effect threshold, defined as 30% inhibition at 1 μg/mL at the time point indicated) | −ve (−ve and +ve indicate that the value is below and above respectively, the no significant effect threshold, defined as 30% inhibition at 1 μg/mL at the time point indicated) | 1 |  | 
COc1ccc(Nc2nccc(Oc3ccc(NC(=O)Nc4cc(C(C)C)nn4-c4ccc(C)cc4)c4ccccc34)n2)cc1C(=O)NCCN1CCOCC1 [Example 70, 5-((4-((4-(3-(3-isopropyl-1-(p-tolyl)-1H-pyrazol-5-yl)ureido)naphthalen-1-yl)oxy)pyrimidin-2-yl)amino)-2-methoxy-N-(2-morpholinoethyl)benzamide] | 8.9 | 22 | 0.6 | 1.5 | 525 | −ve (−ve and +ve indicate that the value is below and above respectively, the no significant effect threshold, defined as 30% inhibition at 1 μg/mL at the time point indicated) | −ve (−ve and +ve indicate that the value is below and above respectively, the no significant effect threshold, defined as 30% inhibition at 1 μg/mL at the time point indicated) | 2 |  | 
COc1cc(Nc2cc(Oc3ccc(NC(=O)Nc4cc(C(C)C)nn4-c4ccc(C)cc4)c4ccccc34)ncn2)cc(C(=O)NCCN2CCOCC2)c1 [Example 71, 3-((6-((4-(3-(3-isopropyl-1-(p-tolyl)-1H-pyrazol-5-yl)ureido)naphthalen-1-yl)oxy)pyrimidin-4-yl)amino)-5-methoxy-N-(2-morpholinoethyl)benzamide] | 7.3 | 547 | 2.7 | 1.9 | 5770 | −ve (−ve and +ve indicate that the value is below and above respectively, the no significant effect threshold, defined as 30% inhibition at 1 μg/mL at the time point indicated) | −ve (−ve and +ve indicate that the value is below and above respectively, the no significant effect threshold, defined as 30% inhibition at 1 μg/mL at the time point indicated) | < 1 |  | 
COc1cc(Nc2cc(Oc3ccc(NC(=O)Nc4cc(C(C)(C)C)nn4-c4ccc(C)cc4)c4ccccc34)ncn2)cc(C(=O)NCCN2CCOCC2)c1 [Example 72] | 2.6 | 202 | 1.2 | 2.1 | > 13000 | −ve (−ve and +ve indicate that the value is below and above respectively, the no significant effect threshold, defined as 30% inhibition at 1 μg/mL at the time point indicated) | −ve (−ve and +ve indicate that the value is below and above respectively, the no significant effect threshold, defined as 30% inhibition at 1 μg/mL at the time point indicated) | 4 |  | 
C#Cc1cc(Nc2nccc(Oc3ccc(NC(=O)Nc4cc(C(C)(C)C)nn4-c4ccc(OC)nc4)c4ccccc34)n2)cc(C(=O)NCCN2CCOCC2)c1 [Example 73, 3-((4-((4-(3-(3-(tert-Butyl)-1-(6-methoxypyridin-3-yl)-1H-pyrazol-5-yl)ureido)naphthalen-1-yl)oxy)pyrimidin-2-yl)amino)-5-ethynyl-N-(2-morpholinoethyl)benzamide] |  |  |  |  |  |  |  |  | 0.5 | 402
C#Cc1cc(Nc2nccc(Oc3ccc(NC(=O)Nc4cc(C(F)(F)C(F)(F)F)nn4-c4ccc(C)cc4)c4ccccc34)n2)cc(C(=O)NCCN2CCOCC2)c1 [Example 74, 3-Ethynyl-N-(2-morpholinoethyl)-5-((4-((4-(3-(3-(perfluoroethyl)-1-(p-tolyl)-1H-pyrazol-5-yl)ureido)naphthalen-1-yl)oxy)pyrimidin-2-yl)amino)benzamide] |  |  |  |  |  |  |  |  | 4.1 | ≥ 12100
C#Cc1cc(Nc2nccc(Oc3ccc(NC(=O)Nc4cc(C(C)(C)OC)nn4-c4ccc(C)cc4)c4ccccc34)n2)cc(C(=O)NCCN2CCOCC2)c1 [Example 79, 3-Ethynyl-5-((4-((4-(3-(3-(2-methoxypropan-2-yl)-1-(p-tolyl)-1H-pyrazol-5-yl)ureido)naphthalen-1-yl)oxy)pyrimidin-2-yl)amino)-N-(2-morpholinoethyl)benzamide] |  |  |  |  |  |  |  |  | 1.1 | 756
